Measured values: ChEMBL document CHEMBL4229379, “Synthesis and structure-activity relationship of novel bisindole amidines active against MDR Gram-positive and Gram-negative bacteria” (Eur J Med Chem, 2018)

Tests used:
Enterococcus faecium [1] = test: Antibacterial activity against vancomycin-resistant Enterococcus faecium ATCC 700221 after 18 hrs by CLSI broth microdilution method; assay type: functional; details: ATCC 700221, 18 h
Enterococcus faecalis [2] = test: Antibacterial activity against vancomycin-resistant Enterococcus faecalis ATCC 51299 after 18 hrs by CLSI broth microdilution method; assay type: functional; details: ATCC 51299, 18 h
Klebsiella pneumoniae [3] = test: Antibacterial activity against extended-spectrum beta-lactamase deficient Klebsiella pneumoniae 7 after 18 hrs by CLSI broth microdilution method; assay type: functional; details: Klebsiella pneumoniae, 7, 18 h
Enterobacter cloacae = test: Antibacterial activity against Enterobacter cloacae ATCC 43560 after 18 hrs by CLSI broth microdilution method; assay type: functional; details: ATCC 43560, 18 h
Enterococcus faecium [4] = test: Antibacterial activity against vancomycin-sensitive Enterococcus faecium 12-3 after 18 hrs by CLSI broth microdilution method; assay type: functional; details: 12-3, 18 h
Enterococcus faecium [5] = test: Antibacterial activity against vancomycin-resistant Enterococcus faecium 12-1 after 18 hrs by CLSI broth microdilution method; assay type: functional; details: 12-1, 18 h
Pseudomonas aeruginosa [6] = test: Antibacterial activity against Pseudomonas aeruginosa ATCC 27853 after 18 hrs by CLSI broth microdilution method; assay type: functional; details: ATCC 27853, 18 h
[7] = system: Staphylococcus epidermidis; test: Antibacterial activity against methicillin-sensitive Staphylococcus epidermidis 12-6 after 18 hrs by CLSI broth microdilution method; assay type: functional; details: 12-6, 18 h
[8] = system: Staphylococcus epidermidis; test: Antibacterial activity against methicillin-resistant Staphylococcus epidermidis 12-8 after 18 hrs by CLSI broth microdilution method; assay type: functional; details: 12-8, 18 h
[9] = system: Acinetobacter calcoaceticus; test: Antibacterial activity against Acinetobacter calcoaceticus ATCC 19606 after 18 hrs by CLSI broth microdilution method; assay type: functional; details: ATCC 19606, 18 h
Klebsiella pneumoniae [10] = test: Antibacterial activity against extended-spectrum beta-lactamase harboring Klebsiella pneumoniae 12-8 after 18 hrs by CLSI broth microdilution method; assay type: functional; details: 12-8, 18 h
Pseudomonas aeruginosa [11] = test: Antibacterial activity against Pseudomonas aeruginosa PAO1 after 18 hrs by CLSI broth microdilution method; assay type: functional; details: PAO1, 18 h
Staphylococcus aureus [12] = test: Antibacterial activity against methicillin-resistant Staphylococcus aureus 12-33 after 18 hrs by CLSI broth microdilution method; assay type: functional; details: 12-33, 18 h
Klebsiella pneumoniae [13] = test: Antibacterial activity against extended-spectrum beta-lactamase harboring Klebsiella pneumoniae ATCC 700603 after 18 hrs by CLSI broth microdilution method; assay type: functional; details: Klebsiella pneumoniae, 700603, 18 h
Enterococcus faecalis [14] = test: Antibacterial activity against vancomycin-sensitive Enterococcus faecalis 12-5 after 18 hrs by CLSI broth microdilution method; assay type: functional; details: 12-5, 18 h
Escherichia coli [15] = test: Antibacterial activity against extended-spectrum beta-lactamase deficient Escherichia coli 1515 after 18 hrs by CLSI broth microdilution method; assay type: functional; details: Escherichia coli, 1515, 18 h
[16] = Cytotoxicity against HEK293T cells assessed as reduction in cell viability after 48 hrs by MTS assay; assay type: cell-based, HEK-293T; details: human
Pseudomonas aeruginosa [17] = test: Antibacterial activity against Pseudomonas aeruginosa 12-16 after 18 hrs by CLSI broth microdilution method; assay type: functional; details: 12-16, 18 h
Klebsiella aerogenes = test: Antibacterial activity against Enterobacter aerogenes ATCC 13048 after 18 hrs by CLSI broth microdilution method; assay type: functional; details: ATCC 13048, 18 h
Enterococcus faecalis [18] = test: Antibacterial activity against vancomycin-sensitive Enterococcus faecalis ATCC 29212 after 18 hrs by CLSI broth microdilution method; assay type: functional; details: ATCC 29212, 18 h
[19] = system: Staphylococcus epidermidis; test: Antibacterial activity against methicillin-sensitive Staphylococcus epidermidis ATCC 12228 after 18 hrs by CLSI broth microdilution method; assay type: functional; details: ATCC 12228, 18 h
Escherichia coli [20] = test: Antibacterial activity against extended-spectrum beta-lactamase deficient Escherichia coli 12-14 after 18 hrs by CLSI broth microdilution method; assay type: functional; details: 12-14, 18 h
Enterococcus faecalis [21] = test: Antibacterial activity against vancomycin-resistant Enterococcus faecalis 09-9 after 18 hrs by CLSI broth microdilution method; assay type: functional; details: 09-9, 18 h
Proteus mirabilis = test: Antibacterial activity against Proteus mirabilis 12-6 after 18 hrs by CLSI broth microdilution method; assay type: functional; details: 12-6, 18 h
Proteus vulgaris = test: Antibacterial activity against Proteus vulgaris ATCC 29905 after 18 hrs by CLSI broth microdilution method; assay type: functional; details: ATCC 29905, 18 h
Klebsiella pneumoniae [22] = test: Antibacterial activity against extended-spectrum beta-lactamase deficient Klebsiella pneumoniae 12-4 after 18 hrs by CLSI broth microdilution method; assay type: functional; details: 12-4, 18 h
Providencia rettgeri = test: Antibacterial activity against Providencia rettgeri ATCC 31052 after 18 hrs by CLSI broth microdilution method; assay type: functional; details: ATCC 31052, 18 h
Staphylococcus aureus [23] = test: Antibacterial activity against methicillin-sensitive Staphylococcus aureus 12-28 after 18 hrs by CLSI broth microdilution method; assay type: functional; details: 12-28, 18 h
Klebsiella pneumoniae [24] = test: Antibacterial activity against new delhi metallo-beta-lactamase-1 harboring Klebsiella pneumoniae ATCC BAA-2146 after 18 hrs by CLSI broth microdilution method; assay type: functional; details: ATCC BAA-2146, 18 h
Escherichia coli [25] = test: Antibacterial activity against extended-spectrum beta-lactamase deficient Escherichia coli ATCC 25922 after 18 hrs by CLSI broth microdilution method; assay type: functional; details: ATCC 25922, 18 h
Serratia marcescens = test: Antibacterial activity against Serratia marcescens ATCC 21074 after 18 hrs by CLSI broth microdilution method; assay type: functional; details: ATCC 21074, 18 h
Staphylococcus aureus [26] = test: Antibacterial activity against methicillin-resistant Staphylococcus aureus ATCC 33591 after 18 hrs by CLSI broth microdilution method; assay type: functional; details: ATCC 33591, 18 h
Staphylococcus aureus [27] = test: Antibacterial activity against methicillin-sensitive Staphylococcus aureus 15 after 18 hrs by CLSI broth microdilution method; assay type: functional; details: Staphylococcus aureus, 15, 18 h
Citrobacter freundii = test: Antibacterial activity against Citrobacter freundii ATCC 43864 after 18 hrs by CLSI broth microdilution method; assay type: functional; details: ATCC 43864, 18 h
Staphylococcus aureus [28] = test: Antibacterial activity against methicillin-sensitive Staphylococcus aureus ATCC 29213 after 18 hrs by CLSI broth microdilution method; assay type: functional; details: ATCC 29213, 18 h
Escherichia coli [29] = test: Antibacterial activity against extended-spectrum beta-lactamase harboring Escherichia coli 12-15 after 18 hrs by CLSI broth microdilution method; assay type: functional; details: 12-15, 18 h
[30] = system: Stenotrophomonas maltophilia; test: Antibacterial activity against Stenotrophomonas maltophilia ATCC 13636 after 18 hrs by CLSI broth microdilution method; assay type: functional; details: ATCC 13636, 18 h

CN(C)CCCNC(=N)c1ccc2cc(-c3ccc(-c4cc5ccc(C(=N)NCCCN(C)C)cc5[nH]4)cc3)[nH]c2c1
27.7 µg/mL: CC50 at 48 h [16]
2 µg/mL: MIC [8] | MIC [19]
16 µg/mL: MIC (Proteus vulgaris)
128 µg/mL: MIC [9] | MIC (Proteus mirabilis)
4 µg/mL: MIC (Enterococcus faecium [1]) | MIC (Enterococcus faecalis [2]) | MIC (Enterococcus faecium [5]) | MIC [7] | MIC (Staphylococcus aureus [12]) | MIC (Enterococcus faecalis [18]) | MIC (Enterococcus faecalis [21]) | MIC (Staphylococcus aureus [23]) | MIC (Escherichia coli [25]) | MIC (Staphylococcus aureus [26]) | MIC (Staphylococcus aureus [27]) | MIC (Staphylococcus aureus [28])
8 µg/mL: MIC (Klebsiella pneumoniae [3]) | MIC (Enterobacter cloacae) | MIC (Enterococcus faecium [4]) | MIC (Pseudomonas aeruginosa [6]) | MIC (Klebsiella pneumoniae [10]) | MIC (Pseudomonas aeruginosa [11]) | MIC (Klebsiella pneumoniae [13]) | MIC (Enterococcus faecalis [14]) | MIC (Escherichia coli [15]) | MIC (Klebsiella aerogenes) | MIC (Escherichia coli [20]) | MIC (Klebsiella pneumoniae [22]) | MIC (Providencia rettgeri) | MIC (Klebsiella pneumoniae [24]) | MIC (Serratia marcescens) | MIC (Citrobacter freundii) | MIC (Escherichia coli [29]) | MIC [30]
32 µg/mL: MIC (Pseudomonas aeruginosa [17])

CN(C)C(=N)c1ccc2cc(-c3cncc(-c4cc5ccc(C(=N)N(C)C)cc5[nH]4)c3)[nH]c2c1
4 µg/mL: MIC (Klebsiella pneumoniae [3]) | MIC (Enterobacter cloacae) | MIC (Klebsiella pneumoniae [10]) | MIC (Klebsiella aerogenes) | MIC (Proteus vulgaris) | MIC (Klebsiella pneumoniae [24])
16 µg/mL: MIC (Pseudomonas aeruginosa [6]) | MIC (Serratia marcescens)
1 µg/mL: MIC (Enterococcus faecium [5]) | MIC (Escherichia coli [20]) | MIC (Escherichia coli [29])
8 µg/mL: MIC [9] | MIC (Klebsiella pneumoniae [13]) | MIC (Proteus mirabilis) | MIC (Klebsiella pneumoniae [22]) | MIC (Citrobacter freundii) | MIC [30]
0.5 µg/mL: MIC [8] | MIC (Staphylococcus aureus [12]) | MIC (Staphylococcus aureus [23]) | MIC (Staphylococcus aureus [26]) | MIC (Staphylococcus aureus [27]) | MIC (Staphylococcus aureus [28])
2 µg/mL: MIC (Enterococcus faecium [1]) | MIC (Enterococcus faecalis [2]) | MIC (Enterococcus faecium [4]) | MIC (Enterococcus faecalis [14]) | MIC (Escherichia coli [15]) | MIC (Enterococcus faecalis [18]) | MIC (Enterococcus faecalis [21]) | MIC (Providencia rettgeri) | MIC (Escherichia coli [25])
0.25 µg/mL: MIC [7] | MIC [19]
1.75 µg/mL: CC50 at 48 h [16]
> 64 µg/mL: MIC (Pseudomonas aeruginosa [11]) | MIC (Pseudomonas aeruginosa [17])

CN(C)C(=N)c1ccc2cc(-c3ccc(-c4cc5ccc(C(=N)N(C)C)cc5[nH]4)nc3)[nH]c2c1
128 µg/mL: MIC [30]
64 µg/mL: MIC (Pseudomonas aeruginosa [6])
4 µg/mL: MIC (Enterococcus faecium [1]) | MIC (Enterococcus faecalis [2]) | MIC (Enterococcus faecium [4]) | MIC (Enterococcus faecalis [14]) | MIC (Escherichia coli [15]) | MIC (Enterococcus faecalis [18]) | MIC (Escherichia coli [20]) | MIC (Enterococcus faecalis [21]) | MIC (Escherichia coli [25]) | MIC (Escherichia coli [29])
1 µg/mL: MIC [8] | MIC (Staphylococcus aureus [23]) | MIC (Staphylococcus aureus [26]) | MIC (Staphylococcus aureus [27]) | MIC (Staphylococcus aureus [28])
> 128 µg/mL: MIC [9] | MIC (Pseudomonas aeruginosa [11]) | MIC (Klebsiella pneumoniae [13]) | MIC (Pseudomonas aeruginosa [17]) | MIC (Proteus mirabilis) | MIC (Serratia marcescens)
0.5 µg/mL: MIC [19]
16 µg/mL: MIC (Klebsiella pneumoniae [3]) | MIC (Klebsiella aerogenes) | MIC (Proteus vulgaris) | MIC (Providencia rettgeri) | MIC (Citrobacter freundii)
32 µg/mL: MIC (Klebsiella pneumoniae [10]) | MIC (Klebsiella pneumoniae [22]) | MIC (Klebsiella pneumoniae [24])
8 µg/mL: MIC (Enterobacter cloacae)
2 µg/mL: MIC (Enterococcus faecium [5]) | MIC [7] | MIC (Staphylococcus aureus [12])
11.7 µg/mL: CC50 at 48 h [16]
